According to patent publication US20240263207A1, “IN VIVO FLUORINATION” (Danmarks Tekniske Universitet, priority 2018, published 2024):
Where two headings read alike, the source gives them in different places.

Columns and labels:
[1] = system: XylS/Pm system; settings: Calero 2016; cited from earlier work
[2] = system: PNP FlB1; assay: In vitro phosphorylase activity assay with cell extracts expressing FlB1; assay type: biochemical, Streptomyces sp. MA37; settings: 20 hours of incubation, extracts with plasmid pFB-T7FlB1(NHis)
Procedure: In vitro biofluorination was performed with the strain P. putida KT2440 harboring the plasmids pFB-PmflA1, pFB-PT7flB1(NHis), and pFB-PT7flA1, and pPS23 or pSEVA231-PT7pr as negative controls, respectively. Overnight cultures of the strains were diluted to an OD600 of 0.1 in fresh minimal medium, in 250-ml shake flasks. Cells were grown for six hours at 30° C. with shaking of 200 rpm, when they reached an OD600 between 0.4-0.6, after which they were induced with 3-MB 1 mM for the XylS/Pm system or 15 mM of NaF for the FRS-PT7. After 20 hours of incubation, all the volume of culture was centrifuged at 5000 rpm for 10 minutes at 4° C., and the supernatant was discarded. Cellular pellets were washed with Tris-HCl 50 mM pH7.8 and resuspended in a final volume of 3 ml. Cells were disrupted using glass beads in a bead beater, using a program of 6000 rpm for 20 seconds. […] Protein concentrations were determined using a Bradford assay, yielding a concentration of at least 1 mg/ml.
Similarly, for phosphorylase activity assays, 1 ml of the protein fraction from cultures expressing the phosphorylase was then mixed with 0.2 mM of 5′-FDA, in Tris-HCl 50 mM pH7.8. […] After 20 hours of incubation at 30° C., the rest of the reaction was inactivated as described before and the supernatant was taken and analyzed by HPLC. […]

[3] = target: T1, E. coli PNP, coded by the gene deoD (Escherichia coli, UniProt P0ABP8); assay: In vitro conversion of 5′-FDA by cell extracts expressing DeoD; assay type: biochemical; settings: 20 hours
T1 construct: made in house; host or cells: Pseudomonas putida (pPS23 vector, XylS/Pm system; crude cell extract, not purified)
Procedure: (§1) The E. coli purine nucleotide phosphorylase, coded by the gene deoD (SEQ ID NO: 14), as well as the nucleosidase pfs (SEQ ID NO: 16), were amplified by PCR from the genome of the strain MG1655 using reverse primers containing the sequence to introduce a 6×His tag, in order to allow purification if needed. These fragments were respectively mixed with a PCR fragment amplified with USER primers of the pPS23 vector, containing the XylS/Pm expression system. The cloning was performed by USER cloning as described above.
(§2) We furthermore explored the possibility that 5′-FDA could be utilized for other enzymes different to the endogenous of the fluorination pathway from Streptomyces. For this purpose, we used another PNP and a nucleosidase of E. coli. The E. coli PNP, coded by the gene deoD (SEQ ID NO: 14), is able to perform the same reaction as FlB1, and produce 5′-FDRP, whereas the nucleosidase, coded by the gene pfs (SEQ ID NO: 16), removes the […] of 5′-FDA, yielding the sugar 5′-fluorodeoxyribose. These three enzymes share a similarity of 26% in their amino acidic sequence, and contain a common domain, the PNP_UDP_1 domain (PF0148), belonging to the Phosphorylase superfamily. To test the activity of these two enzymes, they were overexpressed in P. putida and the cell extracts were incubated with the substrate 5′-FDA.

[4] = target: T2, nucleosidase, coded by the gene pfs (Escherichia coli, UniProt P0AF12); assay: In vitro conversion of 5′-FDA by cell extracts expressing Pfs; assay type: biochemical, E. coli; settings: 20 hours
T2 construct: made in house; host or cells: Pseudomonas putida (pPS23 vector, XylS/Pm system; crude cell extract, not purified)
Procedure: as §1, §2

[5] = system: P. putida KT2440ΔcrcB
Procedure: (§3) Overnight cultures of P. putida KT2440 and P. putida KT2440ΔcrcB were diluted 20 times in 10 mL of modified M9 minimal medium containing different concentrations of NaF. Cells were grown in 96-well microtiter plates (flat bottom, Greiner Bio-one) at 30° C. and 200 rpm in an ELx808 microtiter plate reader (BioTek). Cells exposed to NaF at various concentrations were incubated in a microtiter plate reader for 24 hours, and growth was followed by measuring OD630 every 30 minutes. The concentrations used for each strain were 0, 25, 50, 75, 125, 200 and 250 mM for P. putida KT2440, and 0, 0.1, 0.5, 1 and 5 mM for P. putida KT2440ΔcrcB.
(§4) The effect of the deletion of crcB on the growth in the presence of high concentrations of NaF in P. putida KT2440 was assessed by calculating the minimal inhibitory concentrations (MICs) of NaF needed to suppress the growth in both a wild-type and a ΔcrcB mutant.

[6] = system: P. putida KT2440; settings: minimal medium, A600 after 20 hours
Procedure: as §3, §4

[7] = system: P. putida KT2440ΔcrcB; settings: data not shown
Procedure: Growth arrest by NaF in P. putida KT2440ΔcrcB was performed by diluting 20 times the overnight cultures in 10 mL of modified M9 minimal medium. Cells were grown in 96-well microtiter plates (flat bottom, Greiner Bio-one) at 30° C. and 200 rpm in an ELx808 microtiter plate reader (BioTek). After six hours of incubation, the cultures had reached an OD630 of 0.5, and the NaF was added at different concentrations. Cells exposed to the stressor were incubated in a microtiter plate reader for 24 hours, and growth was followed by measuring OD630 every 30 minutes. The concentrations of NaF used were 0, 0.05, 0.1, 0.5, 0.75, 1, 2 and 5 mM.
To explore the possibility of having a growth-decoupled platform for biofluorination, we tested the effect of NaF in the growth when added in mid-exponential phase.

[8] = system: F^− responsive riboswitch (FRS) from P. syringae; assay: Expression assay, FRS constructs FRSv1-4 before msfGFP in P. putida KT2440; assay type: cell-based, Pseudomonas putida; settings: 0, 1, 5 and 15 mM of NaF
Procedure: Overnight cultures of P. putida KT2440 with plasmids pSEVA441-FRSv1, pSEVA441-FRSv2, pSEVA441-FRSv3, pSEVA441-FRSv4, or pSEVA441 as autofluorescence control, were diluted 40 times in 10 ml of minimal medium. […] Subsequently, kinetics of the growth and fluorescence, using wavelengths of excitation and emission of 485 nm and 528 nm, respectively, were performed using a SynergyMX (BioTek) microtiter plate reader for 20 hours. Measurements for kinetics were carried out every ten minutes and three independent biological replicates were carried out.
To check the performance of the riboswitch in P. putida KT2440 we cloned four different versions of the riboswitch before the fluorescent reporter protein msfGFP. In the constructions FRSv1 and FRSv2 we kept the original promoter of gene eriC^F, whereas in FRSv3 and FRSv4 we changed the promoter to a constitutive heterologous promoter, PEM7. In the constructions FRSv1 and FRSv3 we conserved the first 8 amino acids of the original eriC^F gene as well, whereas FRSv2 and FRSv4 started with the coding sequence of the msfGFP (FIG. 2).

[9] = system: FRS-PT7 system; assay: Expression assay, FRS-PT7 system with PT7-msfgfp in P. putida KT2440ΔcrcB::FRS-T7RNAP; assay type: cell-based, Pseudomonas putida; settings: lower NaF concentrations than in the P. putida KT2440 background
Procedure: (§5) Overnight cultures of P. putida KT2440 with plasmids pSEVA441-FRSv1, pSEVA441-FRSv2, pSEVA441-FRSv3, pSEVA441-FRSv4, or pSEVA441 as autofluorescence control, were diluted 40 times in 10 ml of minimal medium. […] Subsequently, kinetics of the growth and fluorescence, using wavelengths of excitation and emission of 485 nm and 528 nm, respectively, were performed using a SynergyMX (BioTek) microtiter plate reader for 20 hours. Measurements for kinetics were carried out every ten minutes and three independent biological replicates were carried out. The same procedure was carried out with P. putida KT2440::FRS-T7RNAP and P. putida KT2440ΔcrcB::FRS-T7RNAP strains containing the plasmid pSEVA231-T7pr::msfGFP as well as with the plasmid pSEVA231-T7pr, used as an autofluorescence control.

[10] = system: FRS-PT7 system
Procedure: as §5

T2 sequence (P0AF12 whole entry): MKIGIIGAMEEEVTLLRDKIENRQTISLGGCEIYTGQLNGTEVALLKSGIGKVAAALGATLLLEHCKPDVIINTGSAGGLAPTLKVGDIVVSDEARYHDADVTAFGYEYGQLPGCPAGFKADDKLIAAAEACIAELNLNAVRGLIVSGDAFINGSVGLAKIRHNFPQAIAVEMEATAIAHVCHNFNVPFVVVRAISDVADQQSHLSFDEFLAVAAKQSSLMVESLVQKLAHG
T1 sequence (P0ABP8 whole entry): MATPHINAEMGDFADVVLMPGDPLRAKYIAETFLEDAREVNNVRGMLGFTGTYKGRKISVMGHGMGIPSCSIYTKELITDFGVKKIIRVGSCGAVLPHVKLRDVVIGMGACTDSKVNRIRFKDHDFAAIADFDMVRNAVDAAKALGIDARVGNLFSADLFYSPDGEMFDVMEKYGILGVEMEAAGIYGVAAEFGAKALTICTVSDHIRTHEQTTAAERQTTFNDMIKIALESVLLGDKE

Cc1cccc(C(=O)O)c1 [3-MB, 3-methylbenzoate]
Inducer concentration needed to achieve full expression [1]: 0.5 mM

Nc1ncnc2c1ncn2[C@@H]1O[C@H](CF)[C@@H](O)[C@H]1O [5′-FDA, 5′-fluoro-5′-deoxyadenosine]
Change of 5′-FDA concentration versus initial concentration [2]: a decrease in the concentration of 5′-FDA | Consumption of substrate 5′-FDA (product 5′-FDRP detected by LC-MS) [3]: reduced or depleted completely | Consumption of substrate 5′-FDA (product 5′-fluorodeoxyribose detected by LC-MS) [4]: reduced or depleted completely

[Cl-].[Na+] [NaCl, reference compound]
Effect on growth of the ΔcrcB mutant versus wild-type ([5]; same assays in the presence of NaCl, data not shown): no such effect was seen

[F-].[Na+] [NaF, Sodium fluoride]
NaF concentration in which the strain was able to thrive (MIC assay) [6]: 75 mM | Growth inhibition on plates ([5]; LB plates containing 0.5 and 1 mM of NaF): This effect was also seen | NaF concentration at which the strain was not able to grow (MIC assay) ([5]; minimal medium, A600 after 20 hours): 0.5 mM | Effect on growth ([7]; 0.5 mM of NaF added in mid-exponential phase): a decrease in the growth phase was found | Effect on growth ([7]; 1 mM of NaF added in mid-exponential phase): stopped cell growth almost completely | Fluorescence response of the four FRS constructs [8]: an increase of the fluorescence when higher concentrations of NaF were used | Expression levels relative to the wild-type background [9]: almost two times higher than in the wild-type background | Fluorescence response of the FRS-PT7 system ([10]; 0, 1 and 15 mM of NaF): led to an increase of the cells fluorescence | Final growth of the cultures ([10]; NaF concentrations used for induction (up to 15 mM)): not affected
